Entries after “also recorded” stand apart in the source; their conditions may differ.
Tests used:
Assay type in all cases: in vivo, New Zealand rabbit
[1] = tested on: cataract induced left eye: lens; test: Microscopic observations (histopathology) of lens (Table 12); details: left eye (cataract induced)
Method: (§1) An illustrative ophthalmic formulation for treatment of eye disease is set forth below: The formulations provided herein below are tested in cataract induced New Zealand rabbits, and the results are discussed herein below.
(§2) Cataract was induced by injecting 0.5% Methyl Cellulose, which is replaced by aqueous humor in the rabbit eye (i.e., 0.2 mL of Aqueous humor was withdrawn and the same 0.2 mL of 0.5% Methyl cellulose was injected as a replacement). Cataract was observed within 3-4 days of 0.5% Methyl cellulose replacement. Cataract induction was performed to left eye and right eye was served as a control.
(§3) All surviving animals were euthanized on Day 29 by overdose of Thiopental Sodium. Before scheduled euthanasia, the animals were fasted overnight (water allowed) and terminal body weights were recorded. Animals were subjected to detailed macroscopic observation during necropsy. Both right (untreated/uninduced) and left (treated/induced) eyes were collected and cornea and lens were separated, preserved in Davidson fluid. Cornea and lens selected for histopathological evaluation were processed, embedded and sections were cut at 3-5 μm thickness, Sections were placed on grease-free slides and stained with Hematoxylin and Eosin. A 5-step grading system of minimum, mild, moderate, marked and severe will be used to rank microscopic findings for comparison among groups. Data was compiled based on incidences and severity of changes.

[2] = tested on: intraocular pressure, induced left eye; test: Intraocular pressure, tonometer (Table 13); set-up: unit not given beside the values; details: left eye induced/treated
Method: as §2
(§4) Rabbits were observed by ophthalmoscope and slit lamp once in three days for cataract confirmation. Intraocular pressure was measured with a tonometer once in three days for the confirmation of glaucoma.
(§5) Intra-ocular pressures were measured in animals in each group once in three days using a Tonometer. The readings were documented for each eye separately.

[3] = tested on: cataract induced left eye; test: Macroscopic examination, cataract induced left eye (cinnamic acid derivatives, Tables 10-11); details: left eye (cataract induced), macroscopic; for No Abnormality Detected, incidence: animals affected/6
Method: as §1, §2, §4

[4] = tested on: intraocular pressure, glaucoma-induced left eye; test: Intraocular pressure, tonometer (Table 17); details: for Intraocular pressure, Mean, Left eye: Left (induced) eye; for Intraocular pressure, Mean, Left eye / Intraocular pressure, Mean, Right eye: male, 6 animals/group; for intraocular pressure following treatment / mean intraocular pressure initially measured: induced left eye; for intraocular pressure following treatment: 28-day treatment regimen, 0.5%; for mean intraocular pressure initially measured: six animals, within three days
Method: as §2, §4, §5

[5] = tested on: cataract and intraocular pressure/glaucoma in induced rabbit eye; test: Overall efficacy in cataract reduction and reducing intraocular pressure; details: third study; cataract reduction and reducing intraocular pressure, highest to lowest
Method: as §1
The following preclinical studies were conducted in rabbit model to test the efficacy of various active ingredients.
as §2, §4

[6] = tested on: cataract induced left eye; test: Macroscopic examination, cataract induced left eye (Tables 14-15); details: for cataract efficacy, macroscopic (in words): Table 15; for No Abnormality Detected, incidence: left eye (cataract induced), macroscopic
Method: as §1, §2, §4

[7] = tested on: cataract induced left eye: lens and cornea; test: Microscopic examination (histopathology) of lens and cornea (Table 16); details: for cataract efficacy, histopathology (in words): Table 16
Method: as §1, §2, §3

[8] = Day 28, ↓↓ = Significantly low at P ≤ 0.01 compared to respective control

O=C(/C=C/c1ccc(O)c(O)c1)OCCc1ccccc1 [Caffeic Acid Phenyl ethyl Ester, caffeic acid phenylethyl ester]
Within Normal Histological Limits, incidence [1]: 0/6
Epithelial proliferation, incidence ([1]; lens): 6/6
Lenticular Degeneration, incidence ([1]; lens): 6/6
Liquefaction, incidence ([1]; lens): 6/6
Epithelial proliferation: Marked, incidence ([1]; lens, number of animals): 1
Epithelial proliferation: Mild, incidence ([1]; lens, number of animals): 3
Epithelial proliferation: Minimal, incidence ([1]; lens, number of animals): 2
Liquefaction: Mild, incidence ([1]; lens, number of animals): 2
Liquefaction: Moderate, incidence ([1]; lens, number of animals): 4
Intraocular Pressure, mean ([2]; Day 3): 88.07
Intraocular Pressure, mean ([2]; Day 6): 84.95
Intraocular Pressure, mean ([2]; Day 9): 84.67
Intraocular Pressure, mean ([2]; Day 12): 55.95
Intraocular Pressure, mean ([2]; Day 15): 42.80
Intraocular Pressure, mean ([2]; Day 18): 42.18
Intraocular Pressure, mean ([2]; Day 21): 40.93
Intraocular Pressure, mean ([2]; Day 24): 39.67
Intraocular Pressure, mean ([2]; Day 27): 36.27
Intraocular Pressure, mean ([2]; Day 30): 39.42
Intraocular Pressure, mean ([2]; Day 33): 41.85↓↓
Opacity, cornea and red discoloured, with diffuse opacity: Moderate, incidence [3]: 4/6
Opacity, cornea, diffuse: Minimal, incidence [3]: 1/6
Opacity, cornea, diffuse: Moderate, incidence [3]: 1/6
No Abnormality Detected, incidence [3]: 0/6

O=C(/C=C/c1ccc(O)c(O)c1)NCCc1ccccc1 [Caffeic Acid Phenylethyl Amide, caffeic acid phenylethyl amide]
Within Normal Histological Limits, incidence [1]: 0/6
Epithelial proliferation, incidence ([1]; lens): 2/6
Epithelial proliferation: Absent, incidence ([1]; lens): 4/6
Lenticular Degeneration, incidence ([1]; lens): 5/6
Liquefaction, incidence ([1]; lens): 5/6
Liquefaction: Absent, incidence ([1]; lens): 1/6
Epithelial proliferation: Mild, incidence ([1]; lens, number of animals): 2
Liquefaction: Mild, incidence ([1]; lens, number of animals): 2
Liquefaction: Minimal, incidence ([1]; lens, number of animals): 3
Intraocular Pressure, mean ([2]; Day 3): 86.65
Intraocular Pressure, mean ([2]; Day 6): 79.88
Intraocular Pressure, mean ([2]; Day 9): 78.77
Intraocular Pressure, mean ([2]; Day 12): 72.72
Intraocular Pressure, mean ([2]; Day 15): 50.78
Intraocular Pressure, mean ([2]; Day 18): 49.95
Intraocular Pressure, mean ([2]; Day 21): 45.67
Intraocular Pressure, mean ([2]; Day 24): 49.77
Intraocular Pressure, mean ([2]; Day 27): 36.27
Intraocular Pressure, mean ([2]; Day 30): 25.85
Intraocular Pressure, mean ([2]; Day 33): 36.68↓↓
Opacity, cornea and red discoloured, with diffuse opacity: Moderate, incidence [3]: 1/6
Opacity, cornea, diffuse: Mild, incidence [3]: 2/6
Opacity, cornea, diffuse: Minimal, incidence [3]: 3/6
No Abnormality Detected, incidence [3]: 0/6

O=C(O[C@@H]1Cc2c(O)cc(O)cc2O[C@@H]1c1cc(O)c(O)c(O)c1)c1cc(O)c(O)c(O)c1 [Epigallocatechin Gallate, (2R,3R)-2-(3,4,5-trihydroxyphenyl)-3,4-dihydro-1(2H)-benzopyran-3,5,7-triol 3-(3,4,5-trihydroxy benzoate)]
Intraocular pressure, Mean, Left eye ([4]; Day 3): 29.72 mmHg
Intraocular pressure, Mean, Left eye ([4]; Day 6): 33.06 mmHg
Intraocular pressure, Mean, Left eye ([4]; Day 9): 26.56 mmHg
Intraocular pressure, Mean, Left eye ([4]; Day 12): 32.50 mmHg
Intraocular pressure, Mean, Left eye ([4]; Day 15): 26.39 mmHg
Intraocular pressure, Mean, Left eye ([4]; Day 18): 28.94 mmHg
Intraocular pressure, Mean, Left eye ([4]; Day 21): 27.11 mmHg
Intraocular pressure, Mean, Left eye ([4]; Day 25): 25.56 mmHg
Intraocular pressure, Mean, Left eye [4, 8]: 20.00↓↓ mmHg
Intraocular pressure, Mean, Right eye ([4]; Day 3): 18.11 mmHg
Intraocular pressure, Mean, Right eye ([4]; Day 6): 16.94 mmHg
Intraocular pressure, Mean, Right eye ([4]; Day 9): 16.78 mmHg
Intraocular pressure, Mean, Right eye ([4]; Day 12): 17.00 mmHg
Intraocular pressure, Mean, Right eye ([4]; Day 15): 12.56 mmHg
Intraocular pressure, Mean, Right eye ([4]; Day 18): 16.61 mmHg
Intraocular pressure, Mean, Right eye ([4]; Day 21): 16.06 mmHg
Intraocular pressure, Mean, Right eye ([4]; Day 25): 18.17 mmHg
Intraocular pressure, Mean, Right eye ([4]; Day 28): 16.11 mmHg
intraocular pressure following treatment [4]: 20.00 mmHg
mean intraocular pressure initially measured [4]: 29.72 mmHg
overall efficacy / order of efficacy (in words) [5]: outstanding efficacy in reducing cataracts and also demonstrated a significant capability to address glaucoma; also recorded: Caffeic Acid G3>Epigallocatechin Gallate G4>Encapsulated Feruloyl Tyramine G5>Ferulic Acid G6>Rosmarinic Acid+Caffeic Acid G2
cataract efficacy, macroscopic (in words) [6]: complete recovery in all 6 animals, with no observable cataracts
No Abnormality Detected, incidence [6]: 6/6
cataract efficacy, histopathology (in words) [7]: fully restored, or regenerated in all 6 out of 6 animals, transitioning from severe degeneration to a milder state; also recorded: Only one animal exhibited mild corneal inflammation
Cornea, Inflammation: Mild, incidence ([7]; left eye induced): 1/6
Lens, Liquefaction: Mild, incidence ([7]; left eye induced): 6/6

COc1cc(/C=C/C(=O)O)ccc1O [Ferulic acid]
Intraocular pressure, Mean, Left eye ([4]; Day 3): 30.39 mmHg
Intraocular pressure, Mean, Left eye ([4]; Day 6): 28.39 mmHg
Intraocular pressure, Mean, Left eye ([4]; Day 9): 28.28 mmHg
Intraocular pressure, Mean, Left eye ([4]; Day 12): 25.33 mmHg
Intraocular pressure, Mean, Left eye ([4]; Day 15): 26.00 mmHg
Intraocular pressure, Mean, Left eye ([4]; Day 18): 26.56 mmHg
Intraocular pressure, Mean, Left eye ([4]; Day 21): 23.22 mmHg
Intraocular pressure, Mean, Left eye ([4]; Day 25): 21.72 mmHg
Intraocular pressure, Mean, Left eye [4, 8]: 23.67↓↓ mmHg
Intraocular pressure, Mean, Right eye ([4]; Day 3): 17.28 mmHg
Intraocular pressure, Mean, Right eye ([4]; Day 6): 16.89 mmHg
Intraocular pressure, Mean, Right eye ([4]; Day 9): 16.89 mmHg
Intraocular pressure, Mean, Right eye ([4]; Day 12): 17.56 mmHg
Intraocular pressure, Mean, Right eye ([4]; Day 15): 14.94 mmHg
Intraocular pressure, Mean, Right eye ([4]; Day 18): 14.94 mmHg
Intraocular pressure, Mean, Right eye ([4]; Day 21): 17.06 mmHg
Intraocular pressure, Mean, Right eye ([4]; Day 25): 17.61 mmHg
Intraocular pressure, Mean, Right eye ([4]; Day 28): 17.28 mmHg
intraocular pressure following treatment [4]: 23.67 mmHg
mean intraocular pressure initially measured [4]: 30.39 mmHg
overall efficacy / order of efficacy (in words) [5]: Caffeic Acid G3>Epigallocatechin Gallate G4>Encapsulated Feruloyl Tyramine G5>Ferulic Acid G6>Rosmarinic Acid+Caffeic Acid G2
cataract efficacy, macroscopic (in words) [6]: complete recovery from cataracts in all 6 animals
No Abnormality Detected, incidence [6]: 6/6
cataract efficacy, histopathology (in words) [7]: minimal to moderate lenticular degeneration
Lens, Liquefaction: Mild, incidence ([7]; left eye induced): 4/6
Lens, Liquefaction: Minimal, incidence ([7]; left eye induced): 1/6
Lens, Liquefaction: Moderate, incidence ([7]; left eye induced): 1/6

— patent publication US20260355137A1, “NOVEL OPHTHALMIC FORMULATION” (FERTIS INDIA PVT LTD, priority 2022, published 2026)
